Results on six molecules are retold here after patent US9908850B2, “Salt forms of [R—(R*,R*)]-2-(4-fluorophenyl)-β,δ-dihydroxy-5-(1-methylethyl)3-phenyl-4-[(phenylamino)carbonyl]-1H-pyrrole-1-hepatonic acid” (Pfizer Inc., priority 2004, dated 2018).

This series in a line: hygroscopicity of the salt forms. The series is classed as physicochemical. Conditions: solid salt; considered to be non-hygroscopic.
As to `CC(C)c1c(C(=O)Nc2ccccc2)c(-c2ccccc2)c(-c2ccc(F)cc2)n1CC[C@@H](O)C[C@@H](O)CC(=O)O.c1ccc(CCNCc2ccccc2)cc1` (relative stereo) [benethamine, [R—(R*,R*)]-2-(4-Fluorophenyl)-β,δ-dihydroxy-5-(1-methylethyl)-3-phenyl-4-[(phenylamino)carbonyl]-1H-pyrrole-1-heptanoic acid, N-benzyl-2-phenylethylamine], the hygroscopicity entry is “non-hygroscopic”.
On to `CC(C)c1c(C(=O)Nc2ccccc2)c(-c2ccccc2)c(-c2ccc(F)cc2)n1CC[C@@H](O)C[C@@H](O)CC(=O)O.c1ccc(CNCCNCc2ccccc2)cc1` (relative stereo) [benzathine, [R—(R*,R*)]-2-(4-Fluorophenyl)-β,δ-dihydroxy-5-(1-methylethyl)-3-phenyl-4-[(phenylamino)carbonyl]-1H-pyrrole-1-heptanoic acid,N,N^1-bis(phenylmethyl)-1,2-ethanediamine], for which the hygroscopicity result is given as “non-hygroscopic”.
Turning to “[R—(R*,R*)]-2-(4-Fluorophenyl)-β,δ-dihydroxy-5-(1-methylethyl)-3-phenyl-4-[(phenylamino)carbonyl]-1H-pyrrole-1-heptanoic acid, tertiary-butylamine [erbumine]”, the hygroscopicity result is recorded as “non-hygroscopic”.
In the case of “[R—(R*,R*)]-2-(4-Fluorophenyl)-β,δ-dihydroxy-5-(1-methylethyl)-3-phenyl-4-[(phenylamino)carbonyl]-1H-pyrrole-1-heptanoic acid, tetrahydro-2H-1,4-oxazine [morpholine]”, the hygroscopicity entry is given as “non-hygroscopic”.
To “[R—(R*,R*)]-2-(4-Fluorophenyl)-β,δ-dihydroxy-5-(1-methylethyl)-3-phenyl-4-[(phenylamino)carbonyl]-1H-pyrrole-1-heptanoic acid,N-(phenylmethyl)benzenemethanamine [dibenzylamine]” belongs “non-hygroscopic”; to “[R—(R*,R*)]-2-(4-Fluorophenyl)-β,δ-dihydroxy-5-(1-methylethyl)-3-phenyl-4-[(phenylamino)carbonyl]-1H-pyrrole-1-heptanoic acid,N-ethylethanamine [diethylamine]”, “non-hygroscopic”.
